Among the data in patent publication EP0416609A2, “Benzo[b]thiophene-containing lipoxygenase-inhibiting compounds” (ABBOTT LABORATORIES, priority 1989, dated 1991) are IC50 values, retold here.

This experiment has as its target T1, 5-lipoxygenase (Rattus norvegicus, UniProt P12527).
T1 construct: containing the 20,000xg supernatant from 6x10⁴ homogenized RBL-1 cells; endogenous in cells; host or cells: RBL-1 cells (20,000xg supernatant of homogenate)
T1 sequence (P12527 1-673): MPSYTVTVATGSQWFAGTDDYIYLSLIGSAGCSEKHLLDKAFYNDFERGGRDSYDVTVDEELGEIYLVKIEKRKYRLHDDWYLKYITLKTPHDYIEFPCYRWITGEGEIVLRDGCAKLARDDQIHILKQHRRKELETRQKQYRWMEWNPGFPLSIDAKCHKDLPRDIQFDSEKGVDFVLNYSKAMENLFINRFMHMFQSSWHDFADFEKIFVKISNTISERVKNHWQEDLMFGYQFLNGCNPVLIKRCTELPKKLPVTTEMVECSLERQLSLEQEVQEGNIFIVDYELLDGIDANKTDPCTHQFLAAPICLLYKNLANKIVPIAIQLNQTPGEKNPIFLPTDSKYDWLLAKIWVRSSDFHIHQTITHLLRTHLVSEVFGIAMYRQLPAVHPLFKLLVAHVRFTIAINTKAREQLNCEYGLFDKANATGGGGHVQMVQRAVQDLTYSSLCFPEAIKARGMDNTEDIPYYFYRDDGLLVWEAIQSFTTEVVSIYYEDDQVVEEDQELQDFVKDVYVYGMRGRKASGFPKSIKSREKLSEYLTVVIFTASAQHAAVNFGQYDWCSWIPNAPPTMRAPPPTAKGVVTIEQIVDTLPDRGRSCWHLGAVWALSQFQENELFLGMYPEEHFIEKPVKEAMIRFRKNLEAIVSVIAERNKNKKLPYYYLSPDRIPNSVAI
As to the kind of experiment: Lipoxygenase IC50 determination (20,000xg supernatant from homogenized RBL-1 cells, radiolabelled arachidonic acid). The class given is biochemical. The note with it: 20,000xg supernatant from 6x10⁴ homogenized RBL-1 cells, 2% DMSO vehicle, triplicate incubations; read-out: IC₅₀. As for the experimental part:
Lipoxygenase IC₅₀ Determination
Reactions were initiated by addition of radiolabelled arachidonic acid and terminated by acidification and ether extraction. Reaction products were separated from nonconverted substrate by thin layer chromatography and measured by liquid scintillation spectroscopy. All treatments were evaluated in triplicate incubations. […] ICso values and 95% confidence limits were computed by linear regression analysis of percentage inhibition versus log inhibitor concentration plots.

In the case of `CC(c1cc2ccccc2s1)N(O)C(=O)NC(N)=O` (stereo not shown) [Example 11], the IC50 was found to be 1000 nM.
The result for `CC(=O)NC(=O)N(O)C(C)c1cc2ccccc2s1` (stereo not shown) [Example 10, N′-acetyl-N-hydroxy-N-[1-(benzo[b]thien-2-yl)ethyl]urea;] reads 1500 nM; that for `COC(=O)ON(C(N)=O)C(C)c1cc2ccccc2s1` (stereo not shown) [Example 5, N-methoxycarbonyloxy-N-[1-(benzol[b]thien-2-yl)ethyl]urea], 1200 nM; that for `CC(c1cc2ccccc2s1)N(OC(=O)CCC(=O)O)C(N)=O` (stereo not shown) [Example 9, N-succinyloxy-N-[1-(benzo[b]thien-2-yl)ethyl]urea], 600 nM.
Then `CC(=O)ON(C(N)=O)C(C)c1cc2ccccc2s1` (stereo not shown) [Example 3, N-acetoxy-N-[1-(benzol[b]thien-2-yl)ethyl]urea], with 2100 nM; and `CC(=O)N(O)C(C)c1cc2ccccc2s1` (stereo not shown) [Example 1, N-hydroxy-N-(1-benzol[b]thien-2-ylethyl)acetamide], with 1100 nM; and `CCOC(=O)ON(C(N)=O)C(C)c1cc2ccccc2s1` (stereo not shown) [Example 4, N-ethoxycarbonyloxvyN-[1-(benzo[b]thien-2-yl)ethyl]urea], with 1500 nM.
